In patent US10981932B2, “Macrocyclic indole derivatives” (Bayer Aktiengesellschaft, priority 2016, dated 2021) one finds EC50 and IC50 data, which are given here for 9 compounds.

Data set [1] deals with SUDHL10. Description: Induction of caspase-3/7 activity (Caspase-Glo 3/7), SUDHL10. The class given is cell-based. The conditions noted are these: caspase-3/7 induction, SUDHL10 cells, 3 h treatment, median. The method, boiled down: (§1)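 A 3 h, 37 °C compound incubation precedes the Caspase-Glo 3/7 read. After subtracting medium-only signal, EC50s are fitted against the reference compound's maximal caspase induction.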

The test system of data set [2] is SUDHL10. Description: Anti-proliferative effect (CellTiter-Glo, 72 h), SUDHL10. It is filed as cell-based. The conditions noted are these: SUDHL10 cells, antiproliferation, median, read-out: Antiproli SUDHL10 [M] (median). In a few lines: (§2)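 Endpoint: CellTiter-Glo luminescence, 10 min after reagent addition. Treatment ran 72 h at 37 °C, humidified. Growth was referenced to a separately plated day 0 plate.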
(Cellular ATP, detected with luciferase, serves as a proxy for viable cell number.)

In data set [3] the test system is A2780. Description: Anti-proliferative effect (CellTiter-Glo, 72 h), A2780. The conditions noted are these: A2780 cells, median, read-out: IC50 antiproliferation assay A2780 [M] (median). It is filed as cell-based. The method, boiled down: as §2
The target in data set [4] is MCL-1 (Homo sapiens, UniProt Q07820). As to the kind of experiment: Protein-protein interaction assay MCL-1/Noxa BH3 peptide (MCL-1 assay), TR-FRET. It is filed as binding. As to conditions: MBP-MCL-1 / Noxa BH3-derived peptide, median. In a few lines: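 Steady-state competition, MCL-1/Noxa BH3, TR-FRET readout; 1 nM MBP-MCL-1, 11-point dose series 0.1 nM–20 μM; overnight 4 °C equilibration; 4-parameter IC50.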
For orientation: Time-resolved FRET reads energy transfer from a long-lived donor to a nearby acceptor.

Data set [5] has as its system SUDHL10. Description: Induction of cytotoxicity (CellTiter-Glo, 5 h), SUDHL10.
Data set [6] deals with SUDHL5. Description: Induction of caspase-3/7 activity (Caspase-Glo 3/7), SUDHL5. The class given is cell-based. The conditions noted are these: caspase-3/7 induction, SUDHL5 cells, 3 h treatment, median. In a few lines:
as §1

Data set [7] concerns SUDHL5. Description: Anti-proliferative effect (CellTiter-Glo, 72 h), SUDHL5. It is filed as cell-based. The conditions noted are these: SUDHL5 cells, antiproliferation, median, read-out: Antiproli SUDHL5 [M] (median). In a few lines:
as §2

The subject of data set [8] is SUDHL5. Description: Induction of cytotoxicity (CellTiter-Glo, 5 h), SUDHL5.
[9] abbreviates: Homo sapiens, SU-DHL-5, 72 h, 72 h incubation.
Where [10] appears, read: read-out: Cytotox SUDHL10 [M] (median), SUDHL10 cells, cytotoxicity induction, CellTiter-Glo, 5 h incubation, median.
Setting [11] is: read-out: Cytotox SUDHL5 [M] (median), SUDHL5 cells, cytotoxicity induction, CellTiter-Glo, 5 h incubation, median.
The mark [12] stands for this setting: Homo sapiens, SU-DHL10, 72 h, 72 h.
The mark [13] stands for this setting: Homo sapiens, SU-DHL10, 5 h, read-out: Cytotox SUDHL10 [M] (median), SUDHL10 cells, cytotoxicity induction, CellTiter-Glo, 5 h, median.
[14] abbreviates: Homo sapiens, SU-DHL-5, 72 h, 72 h.
The mark [15] stands for this setting: Homo sapiens, SU-DHL-5, 5 h, read-out: Cytotox SUDHL5 [M] (median), SUDHL5 cells, cytotoxicity induction, CellTiter-Glo, 5 h, median.

Where “and” joins values, the source holds several entries; their conditions need not be identical. Equal entries are not always repeated. Structures can show the parent of a compound that is named as a salt. Where two headings read alike, the source gives them in different places. Where only a bound is given, the exact number is not on record here.

Chain of MCL-1 (Q07820 whole entry): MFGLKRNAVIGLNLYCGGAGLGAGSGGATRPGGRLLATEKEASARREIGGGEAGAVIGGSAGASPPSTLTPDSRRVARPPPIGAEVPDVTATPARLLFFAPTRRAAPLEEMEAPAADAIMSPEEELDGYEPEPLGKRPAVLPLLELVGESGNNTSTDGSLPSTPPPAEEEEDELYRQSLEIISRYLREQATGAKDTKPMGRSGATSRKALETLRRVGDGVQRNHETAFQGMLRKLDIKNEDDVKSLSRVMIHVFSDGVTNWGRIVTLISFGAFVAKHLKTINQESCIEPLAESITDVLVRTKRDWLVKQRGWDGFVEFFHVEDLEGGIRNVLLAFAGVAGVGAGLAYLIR

Turning to `COCc1nn(C)c2c1-c1cccc3c(CCCOc4cccc5ccccc45)c(C(=O)O)n(c13)CCCCCOC2` (single isomer, unassigned; enantiomer 1) [Example 178, 3-(methoxymethyl)-1-methyl-7-[3-(naphthalen-1-yloxy)propyl]-1,11,12,13,14,16-hexahydro-1 OH-pyrazolo[3′,4′:3,4][1,7]oxazacyclododecino[5,6,7-h]indole-8-carboxylic acid-N-ethylethanamine Salt (Enantiomer 1)], the EC50 (as a rule, the concentration giving half of the maximal effect) is over 33 µM in data set [1] (Homo sapiens, SU-DHL10, 3 h); 30 µM in data set [1]; 12.8 µM in data set [6] (Homo sapiens, SU-DHL-5, 3 h). For the same compound, the IC50 in data set [2] (72 h incubation) was > 3.3e-05 M and 2.21e-05 M; in data set [3] (Homo sapiens, A2780, 72 h) it was over 3.3e-05 M; in data set [4] it was 0.0181 µM; in data set [5] (Homo sapiens, SU-DHL10, 5 h, read-out: Cytotox SUDHL10 [M] (median), SUDHL10 cells, cytotoxicity induction, CellTiter-Glo, 5 h incubation, median) it was over 3.3e-05 M; in data set [7] (setting [9]), 9.37e-06 M; in data set [8] (Homo sapiens, SU-DHL-5, 5 h, read-out: Cytotox SUDHL5 [M] (median), SUDHL5 cells, cytotoxicity induction, CellTiter-Glo, 5 h incubation, median), 1.3e-05 M.
Regarding `CCCc1nn(C)c2c1-c1c(C)ccc3c(CCCOc4cccc5ccccc45)c(C(=O)O)n(c13)CCCCOC2` (single isomer, unassigned; enantiomer 1) [Example 188, 1,4-dimethyl-7-[3-(naphthalen-1-yloxy)propyl]-3-propyl-1,10,11,12,13,15-hexahydropyrazolo[4′,3′:9,10][1,6]oxazacycloundecino[8,7,6-hi]indole-8-carboxylic acid-N-ethylethanamine Salt (Enantiomer 1)], the EC50 in data set [1] stood at 7.76 µM; in data set [6], 2.82 µM. The IC50 in data set [2] (72 h incubation) is 9.83e-06 M; in data set [3] (Homo sapiens, A2780, 72 h) it was 2.42e-05 M; in data set [4], 0.00146 µM; in data set [5] (setting [10]), 6.61e-06 M; in data set [7] (72 h incubation) it was 3.39e-06 M; in data set [8] (setting [11]) it was 2.95e-06 M.
Consider `Cn1nc2c(c1C(F)(F)F)-c1cccc3c(CCCOc4cccc5ccccc45)c(C(=O)O)n(c13)CCCCOC2` (single isomer, unassigned; enantiomer 1) [Example 194, 2-methyl-7-[3-(naphthalen-1-yloxy)propyl]-3-(trifluoromethyl)-2,10,11,12,13,15-hexahydropyrazolo[4′,3′:9,10][1,6]oxazacycloundecino[8,7,6-hi]indole-8-carboxylic Acid (Enantiomer 1)], for which the EC50 in data set [1] worked out at 15.1 µM; in data set [6] it was 5.09 µM. Also, the IC50 in data set [2] (72 h incubation) came out at 6.28e-06 M; in data set [3] (Homo sapiens, A2780, 72 h), 1.82e-05 M; in data set [4], 0.00735 µM; in data set [5] (setting [10]) it was 1.63e-05 M; in data set [7] (setting [9]), 7.95e-06 M; in data set [8] (setting [11]), 5.46e-06 M.
Turning to `CCc1c2c(nn1CCN1CCOCC1)COCCCCn1c(C(=O)O)c(CCCOc3cccc4ccccc34)c3cccc-2c31` (single isomer, unassigned; enantiomer 1) [Example 202, 3-ethyl-2-[2-(morpholin-4-yl)ethyl]-7-[3-(naphthalen-1-yloxy)propyl]-2,10,11,12,13,15-hexahydropyrazolo[4′,3′:9,10][1,6]oxazacycloundecino[8,7,6,6-hi]indole-8-carboxylic Acid (Enantiomer 1)], the EC50 in data set [1] is over 33 µM; in data set [6], 30.2 µM. The IC50 in data set [2] (72 h incubation) is 1.74e-05 M; in data set [3] (Homo sapiens, A2780, 72 h) it was 3.17e-05 M; in data set [4] it was 0.0462 µM; in data set [5] (setting [10]), 2.87e-05 M; in data set [7] (72 h incubation), 2.52e-05 M; in data set [8] (setting [11]) it was over 3.3e-05 M.
For the compound `Cn1nc(COc2ccc(NS(C)(=O)=O)cc2)c2c1COCCCCn1c(C(=O)O)c(CCCOc3cccc4ccccc34)c3cccc-2c31` (single isomer, unassigned; enantiomer 1) [Example 322, 1-methyl-3-({4-[((methylsulfonyl)amino]phenoxy}methyl)-7-[3-(naphthalen-1-yloxy)propyl]-1,10,11,12,13,15-hexahydropyrazolo[4′,3′:9,10][1,6]oxazacycloundecino[8,7,6-hi]indole-8-carboxylic Acid-N-ethylethanamine Salt (Enantiomer 1)], the EC50 was over 33 µM in data set [1] (Homo sapiens, SU-DHL10, 3 h) and over 33 µM in data set [6] (Homo sapiens, SU-DHL-5, 3 h). Besides, the IC50 in data set [2] (setting [12]) is 1.9e-05 M; in data set [3] (Homo sapiens, A2780, 72 h) it was over 3.3e-05 M; in data set [4], 1.08 µM; in data set [5] (setting [13]) it was over 3.3e-05 M; in data set [7] (setting [14]), 2.46e-05 M; in data set [8] (setting [15]) it was over 3.3e-05 M.
Take `Cn1nc(CN2CCCCC2=O)c2c1COCCCCn1c(C(=O)O)c(CCCOc3cccc4ccccc34)c3cccc-2c31` (single isomer, unassigned; enantiomer 1) [Example 326, 1-methyl-7-[3-(naphthalen-1-yloxy)propyl]-3-[(2-oxopiperidin-1-yl)methyl]-1,10,11,12,13,15-hexahydropyrazolo[4′,3′:9,10][1,6]oxazacycloundecino[8,7,6-hi]indole-carboxylic Acid (Enantiomer 1)]: the half-maximal effective concentration (EC50) in data set [1] (Homo sapiens, SU-DHL10, 3 h) was over 33 µM; in data set [6] (Homo sapiens, SU-DHL-5, 3 h) it was over 33 µM. Also, the IC50 in data set [2] (setting [12]) is 1.14e-05 M; in data set [3] (Homo sapiens, A2780, 72 h) it was over 3.3e-05 M; in data set [4], 0.515 µM; in data set [5] (setting [13]), over 3.3e-05 M; in data set [7] (setting [14]) it was 3.18e-05 M; in data set [8] (setting [15]), over 3.3e-05 M.
On to `Cn1nc(CN2CCCC2=O)c2c1COCCCCn1c(C(=O)O)c(CCCOc3cccc4ccccc34)c3cccc-2c31` (single isomer, unassigned; enantiomer 1) [Example 330, 1-methyl-7-[3-(naphthalen-1-yloxy)propyl]-3-[(2-oxopyrrolidin-1-yl)methyl]-1,10,11,12,13,15-hexahydropyrazolo[4′,3′:9,10][1,6]oxazacycloundecino[8,7,6-hi]indole-8-carboxylic Acid (Enantiomer 1)], for which the EC50 in data set [1] and in data set [6] was over 33 µM throughout. In addition, the IC50 in data set [2] (72 h) was 2.49e-05 M; in data set [3], over 3.3e-05 M; in data set [4], 0.153 µM; in data set [5] (read-out: Cytotox SUDHL10 [M] (median), SUDHL10 cells, cytotoxicity induction, CellTiter-Glo, 5 h, median), over 3.3e-05 M; in data set [7] (72 h), over 3.3e-05 M; in data set [8] (read-out: Cytotox SUDHL5 [M] (median), SUDHL5 cells, cytotoxicity induction, CellTiter-Glo, 5 h, median), over 3.3e-05 M.
Turning to `Cn1nc(CN2CCCCC2)c2c1COCCCCn1c(C(=O)O)c(CCCOc3cccc4ccccc34)c3cccc-2c31` (single isomer, unassigned; enantiomer 1) [Example 333, 1-methyl-7-[3-(naphthalen-1-yloxy)propyl]-3-(piperidin-1-ylmethyl)-1,10,11,12,13,15-hexahydropyrazolo[4′,3′:9,10][1,6]oxazacycloundecino[8,7,6-hi]indole-8-carboxylic Acid (Enantiomer 1)], the EC50 in data set [1] (Homo sapiens, SU-DHL10, 3 h) was over 33 µM; in data set [6] (Homo sapiens, SU-DHL-5, 3 h) it was 17.3 µM. Also, the IC50 in data set [2] (setting [12]) is 8.22e-06 M; in data set [3] (Homo sapiens, A2780, 72 h), 1.67e-05 M; in data set [4], 1.04 µM; in data set [5] (setting [13]), over 3.3e-05 M; in data set [7] (setting [14]) it was 8.44e-06 M; in data set [8] (setting [15]) it was 2.89e-05 M.
Regarding `Cn1nc(CN2CCCC2)c2c1COCCCCn1c(C(=O)O)c(CCCOc3cccc4ccccc34)c3cccc-2c31` (single isomer, unassigned; enantiomer 1) [Example 336, 1-methyl-7-[3-(naphthalen-1-yloxy)propyl]-3-(pyrrolidin-1-ylmethyl)-1,10,11,12,13,15-hexahydropyrazolo[4′,3′:9,10][1,6]oxazacycloundecino[8,7,6-hi]indole-8-carboxylic Acid (Enantiomer 1)], the EC50 in data set [1] (Homo sapiens, SU-DHL10, 3 h) is over 33 µM; in data set [6] (Homo sapiens, SU-DHL-5, 3 h), over 33 µM. In addition, the IC50 is over 3.3e-05 M in data set [2] (setting [12]); over 3.3e-05 M in data set [3] (Homo sapiens, A2780, 72 h); 0.132 µM in data set [4]; over 3.3e-05 M in data set [5] (setting [13]); over 3.3e-05 M in data set [7] (setting [14]); over 3.3e-05 M in data set [8] (setting [15]).
